Active and inactive are the calls of the source. No cut-off for these calls is given here.
What was measured:
NCI-H460 = assay: Antiproliferative activity against human NCI-H460 cells after 48 hrs; type: functional; details: NCI-H460, 48 h; for CC50: read-out: LC50 (the source's name)
CAKI-1 = assay: Antiproliferative activity against human CAKI1 cells after 48 hrs; type: functional; details: CAKI-1, 48 h
NCI-H522 = assay: Antiproliferative activity against human NCI-H522 cells after 48 hrs; type: functional; details: NCI-H522, 48 h
786-0 = assay: Antiproliferative activity against human 786-0 cells after 48 hrs; type: functional; details: Homo sapiens, 786-0, 48 h; for CC50: read-out: LC50 (the source's name)
UO-31 = assay: Antiproliferative activity against human UO31 cells after 48 hrs; type: functional; details: Homo sapiens, UO-31, 48 h
NCI = assay: Growth inhibition of human NCI DTP 60 cells; type: functional; details: Homo sapiens, NCI
IGROV-1 = assay: Antiproliferative activity against human IGROV1 cells after 48 hrs; type: functional; details: IGROV-1, 48 h
Plasmodium falciparum [1] = assay: Antimalarial activity against Plasmodium falciparum D6; type: functional, organism-based; details: Plasmodium falciparum, D6
[2] = Antiproliferative activity against human […] cells after 48 hrs; type: functional
Plasmodium falciparum [3] = assay: Antimalarial activity against Plasmodium falciparum W2; type: functional, organism-based
MOLT-4 = assay: Antiproliferative activity against human MOLT4 cells after 48 hrs; type: functional; details: MOLT-4, 48 h
Plasmodium falciparum [4] = assay: Antimalarial activity against Plasmodium falciparum TM91C235; type: functional, organism-based; details: Plasmodium falciparum, TM91C235
SN12C = assay: Antiproliferative activity against human SN12C cells after 48 hrs; type: functional
DU-145 = assay: Antiproliferative activity against human DU145 cells after 48 hrs; type: functional; details: DU-145, 48 h
A498 = assay: Antiproliferative activity against human A498 cells after 48 hrs; type: functional; details: A498, 48 h
SF-539 = assay: Antiproliferative activity against human SF539 cells after 48 hrs; type: functional; details: SF-539, 48 h
HL-60 = assay: Antiproliferative activity against human HL60 cells after 48 hrs; type: functional; details: Homo sapiens, HL-60, 48 h
SF-295 = assay: Antiproliferative activity against human SF295 cells after 48 hrs; type: functional; details: SF-295, 48 h
MDA-MB-435 = assay: Antiproliferative activity against human MDA-MB-435 cells after 48 hrs; type: functional; details: Homo sapiens, MDA-MB-435, 48 h
MDA-MB-231 = assay: Antiproliferative activity against human MDA-MB-231 cells after 48 hrs; type: functional; details: MDA-MB-231, 48 h
LOX IMVI = assay: Antiproliferative activity against human LOX IMVI cells after 48 hrs; type: functional; details: Homo sapiens, LOX IMVI, 48 h
NCI-H23 = assay: Antiproliferative activity against human NCI-H23 cells after 48 hrs; type: functional; details: NCI-H23, 48 h
Plasmodium berghei = assay: Antimalarial activity as survivors after 31 days in Plasmodium berghei KBG173 infected CD1 mice (Mus musculus) at 40 mg/kg/day; type: functional, organism-based; details: KBG 173
[5] = read-out: LC50 (the source's name)

Question: For `CC(=O)O[C@H]1C[C@H]2[C@@H]([C@H](OC(C)=O)C[C@@H]3CC4(CC[C@@]32C)OOC2(CCCCC2)OO4)[C@@H]2CC[C@H]([C@H](C)CCC(N)=O)[C@@]12C`, which GI50 (NCI-H460) is on record?
Answer: 550 nM

Question: What about the TGI (NCI-H460) of the same compound?
Answer: 2070 nM

Question: And the CC50 (NCI-H460)?
Answer: 5280 nM

Question: What about the GI50 (CAKI-1) of the same compound?
Answer: 200 nM

Question: And the TGI (CAKI-1)?
Answer: 1120 nM

Question: And the CC50 (CAKI-1; [5])?
Answer: 3590 nM

Question: What about the GI50 (NCI-H522) of the same compound?
Answer: 230 nM

Question: What about the TGI (NCI-H522) of the same compound?
Answer: 770 nM

Question: And the CC50 (NCI-H522; [5])?
Answer: 3020 nM

Question: And the GI50 (786-0)?
Answer: 783 nM

Question: And the TGI (786-0)?
Answer: 2090 nM

Question: What about the CC50 (786-0) of the same compound?
Answer: 4570 nM

Question: What about the GI50 (UO-31) of the same compound?
Answer: < 10 nM

Question: And the LC50 (UO-31)?
Answer: 40 nM

Question: What about the TGI (UO-31) of the same compound?
Answer: 14 nM

Question: What about the GI50 (NCI) of the same compound?
Answer: < 10 nM

Question: And the GI50 (IGROV-1)?
Answer: 32 nM

Question: And the LC50 (concentration killing 50% of cells) (IGROV-1)?
Answer: 430 nM

Question: What about the TGI (IGROV-1) of the same compound?
Answer: 120 nM

Question: For `CCCNC(=O)CC[C@@H](C)[C@H]1CC[C@H]2[C@@H]3CC[C@@H]4CC5(CC[C@]4(C)[C@H]3C[C@H](OC(C)=O)[C@]12C)OOC1(CCCCC1)OO5`, which IC50 (Plasmodium falciparum [1]) is on record?
Answer: 74.3 nM

Question: And the IC90 (Plasmodium falciparum [1])?
Answer: 115 nM

Question: What about the GI50 [2] of the same compound?
Answer: 110 nM

Question: And the TGI [2]?
Answer: 650 nM

Question: What about the CC50 [2, 5] of the same compound?
Answer: 6820 nM

Question: What about the GI50 (NCI) of the same compound?
Answer: 110 nM

Question: And the IC50 (Plasmodium falciparum [3]; Plasmodium falciparum, W2)?
Answer: 40.8 nM

Question: What about the IC90 (Plasmodium falciparum [3]; Plasmodium falciparum, W2) of the same compound?
Answer: 111 nM

Question: Which results are given for `CC(=O)O[C@H]1C[C@H]2[C@@H](CC[C@@H]3CC4(CC[C@@]32C)OOC2(CCCCC2)OO4)[C@@H]2CC[C@H]([C@H](C)CCC(=O)NCCN(C)C)[C@@]12C`?
Answer: GI50 (NCI-H460): 536 nM; TGI (NCI-H460): 1900 nM; CC50 (NCI-H460): 4700 nM; IC50 (Plasmodium falciparum [1]): 221 nM; GI50 (786-0): 159 nM; TGI (786-0): 298 nM; CC50 (786-0): 559 nM; GI50 (MOLT-4): < 10 nM; TGI (MOLT-4): > 100000 nM; IC50 (Plasmodium falciparum [4]): 221 nM; GI50 (NCI): < 10 nM; IC50 (Plasmodium falciparum [3]; Plasmodium falciparum, W2): 105 nM; IC90 (Plasmodium falciparum [3]; Plasmodium falciparum, W2): 276 nM

Question: For `CC(=O)O[C@H]1C[C@H]2[C@@H](CC[C@@H]3CC4(CC[C@@]32C)OOC2(CCC(C)CC2)OO4)[C@@H]2CC[C@H]([C@H](C)CCC(N)=O)[C@@]12C` (stereo in doubt; 12), which GI50 (SN12C) is on record?
Answer: 833 nM

Question: What about the LC50 (concentration killing 50% of cells) (SN12C) of the same compound?
Answer: 3000 nM

Question: And the TGI (SN12C)?
Answer: 1580 nM

Question: What about the GI50 (DU-145) of the same compound?
Answer: 699 nM

Question: What about the LC50 (concentration killing 50% of cells) (DU-145) of the same compound?
Answer: 3340 nM

Question: What about the TGI (DU-145) of the same compound?
Answer: 1730 nM

Question: And the IC50 (Plasmodium falciparum [1])?
Answer: 13.6 nM

Question: And the IC90 (Plasmodium falciparum [1])?
Answer: 19 nM

Question: What about the GI50 (A498) of the same compound?
Answer: 923 nM

Question: What about the TGI (A498) of the same compound?
Answer: 1920 nM

Question: And the CC50 (A498; [5])?
Answer: 4000 nM

Question: And the TGI (SF-539)?
Answer: 1840 nM

Question: And the CC50 (SF-539; [5])?
Answer: 3610 nM

Question: And the GI50 (HL-60)?
Answer: 769 nM

Question: What about the TGI (HL-60) of the same compound?
Answer: 1840 nM

Question: What about the CC50 (HL-60; [5]) of the same compound?
Answer: 4410 nM

Question: And the GI50 (SF-295)?
Answer: 524 nM

Question: And the TGI (SF-295)?
Answer: 1690 nM

Question: And the CC50 (SF-295; [5])?
Answer: 3460 nM

Question: And the GI50 (MDA-MB-435)?
Answer: 951 nM

Question: What about the TGI (MDA-MB-435) of the same compound?
Answer: 1940 nM

Question: And the CC50 (MDA-MB-435; [5])?
Answer: 3960 nM

Question: And the GI50 (MDA-MB-231)?
Answer: 821 nM

Question: And the TGI (MDA-MB-231)?
Answer: 1760 nM

Question: What about the CC50 (MDA-MB-231; [5]) of the same compound?
Answer: 3770 nM

Question: What about the IC50 (Plasmodium falciparum [4]) of the same compound?
Answer: 15.7 nM

Question: And the IC90 (Plasmodium falciparum [4])?
Answer: 30.8 nM

Question: What about the GI50 (NCI) of the same compound?
Answer: 110 nM

Question: And the IC90 (Plasmodium falciparum [3])?
Answer: 29.7 nM

Question: And the IC50 (Plasmodium falciparum [3]; Plasmodium falciparum, W2)?
Answer: 18.8 nM

Question: What about the GI50 (LOX IMVI) of the same compound?
Answer: 111 nM

Question: And the TGI (LOX IMVI)?
Answer: 259 nM

Question: And the GI50 (NCI-H23)?
Answer: 660 nM

Question: What about the LC50 (concentration killing 50% of cells) (NCI-H23) of the same compound?
Answer: 3390 nM

Question: What about the TGI (NCI-H23) of the same compound?
Answer: 1710 nM

Question: With `CC(=O)O[C@H]1C[C@H]2[C@@H](CC[C@@H]3CC4(CC[C@@]32C)OOC2(CCC(C)CC2)OO4)[C@@H]2CC[C@H]([C@H](C)CCC(=O)NCCN(C)C)[C@@]12C` (stereo in doubt; 16) as the compound, how does the Activity (Plasmodium berghei) read?
Answer: inactive

— ChEMBL document CHEMBL1148828, “Deoxycholic acid-derived tetraoxane antimalarials and antiproliferatives(1)” (J Med Chem, 2007)
